Earlier results in patent US20090226374A1, “ANAPHYLATOXINS FOR DETECTING CLINICAL CONDITIONS” (Health Aide, Inc., priority 2003, published 2009).
Like-named read-outs stand apart in the source and are kept apart here. Marks after values point to notes of the source that are not given here. Where no end group is shown, it is not given here. [ ]: non-standard residue; d: D form. The star is where a group is joined. Fmoc = O=C(OCC1c2ccccc2-c2ccccc21)*; Ahx = NCCCCCC(=O)O

How the values were obtained:
[1] = assay not given
guinea pig platelet = guinea pig platelet aggregation
guinea pig ileum = settings: for Relative Act. %: natural human C3a (1-77) = 100; for Relative Act. % / Relative molar activity (%): guinea pig ileum contraction; for Relative molar activity (%): pentapeptide L-G-L-A-R (C3a 73-77) = 100
[2] = natural factor C3a (1-77) = 100
[3] = natural C3a of each species; human C3a = 100

Substance: Ahx-Y-S-H-K-G-M-L-L-G-R ([Ahx]YSHKGMLLGR) [Peptide C8]
- Potency relative to C3a (57-77), % ([1]; Table 1E): 0.4%

Substance: Fmoc-Ahx-Y-R-A-S-K-L-G-L-A-R ({Fmoc-Ahx}-YRASKLGLAR) [Peptide C5]
- Potency relative to C3a (57-77), % ([1]; Table 1E): 112%
- Potency relative to C3a (57-77), % ([1]; Table 1F): 112%

Substance: I-I-G-G-Y-R-A-S-K-L-G-L-A-R (IIGGYRASKLGLAR) [Peptide B8]
- Potency relative to C3a (57-77), % (guinea pig platelet): 50%

Substance: I-G-L-A-R [Peptide 4]
- Relative Act. % (guinea pig ileum): 0.8%
- Relative molar activity (%) (guinea pig ileum): 100%

Substance: L-A-L-A-R [Peptide 8]
- Relative Act. % (guinea pig ileum): 0.59%
- Relative molar activity (%) (guinea pig ileum): 270%

Substance: L-G-L-S-R [Peptide 21]
- Relative molar activity (%) (guinea pig ileum): 0.7%

Substance: A-G-L-A-R [Peptide 7]
- Relative Act. % (guinea pig ileum): <0.001%
- Relative molar activity (%) (guinea pig ileum): 20%

Substance: L-G-M-A-R [Peptide 15]
- Relative Act. % (guinea pig ileum): 0.25%
- Relative molar activity (%) (guinea pig ileum): 2.1%

Substance: Fmoc-A-A-A-R-L-G-L-A-R (Fmoc-AAARLGLAR) [Peptide D1]
- Potency relative to C3a (57-77), % ([1]; Table 1F): 66%

Substance: I-I-G-G-Y-R-K-S-A-L-G-L-A-R (IIGGYRKSALGLAR) [Peptide B9]
- Potency relative to C3a (57-77), % (guinea pig platelet): 37%

Substance: FmocW-R-R-R-Y-A-S-K-L-G-L-A-R (Fmoc-WRRRYASKLGLAR) [Peptide B20]
- Potency relative to C3a (57-77), % (guinea pig platelet): 70%

Substance: L-S-L-A-R [Peptide 9]
- Relative Act. % (guinea pig ileum): 2.0%
- Relative molar activity (%) (guinea pig ileum): 55%

Substance: G-I-G-G-Y-R-K-S-A-L-G-L-A-R (GIGGYRKSALGLAR) [Peptide B10]
- Potency relative to C3a (57-77), % (guinea pig platelet): 41%

Substance: W-G-G-Y-R-A-S-K-L-G-L-A-R (WGGYRASKLGLAR) [Peptide B5]
- Potency relative to C3a (57-77), % (guinea pig platelet): 99%

Substance: M-G-L-A-R [Peptide 6]
- Relative Act. % (guinea pig ileum): 0.005%
- Relative molar activity (%) (guinea pig ileum): 50%

Substance: L-G-L-E-R [Peptide 23]
- Relative molar activity (%) (guinea pig ileum): <2.6%

Substance: Fmoc-R-R-R-Y-A-S-K-L-G-L-A-R (Fmoc-RRRYASKLGLAR) [Peptide B17]
- Potency relative to C3a (57-77), % (guinea pig platelet): 261%

Substance: Fmoc-Ahx-Y-A-S-K-L-G-L-A-R ({Fmoc-Ahx}-YASKLGLAR) [Peptide C3]
- Potency relative to C3a (57-77), % ([1]; Table 1E): 22%

Substance: Y-G-L-A-R [Peptide 2]
- Relative Act. % (guinea pig ileum): 2.3%
- Relative molar activity (%) (guinea pig ileum): 160%

Substance: H-Trp-Trp-Gly-Lys-Lys-Tyr-Arg-Ala-Ser-Lys-Leu-Gly-Leu-Ala-Arg-OH (H-WWGKKYRASKLGLAR-OH) [Peptide E7]
- Relative molar activity (%) [2]: >100** %

Substance: I-R-R-R-Y-A-S-K-L-G-L-A-R (IRRRYASKLGLAR) [Peptide B15]
- Potency relative to C3a (57-77), % (guinea pig platelet): 99%

Substance: I-G-G-G-Y-R-K-S-A-L-G-L-A-R (IGGGYRKSALGLAR) [Peptide B11]
- Potency relative to C3a (57-77), % (guinea pig platelet): 16%

Substance: C3a (1-77): Natural human C3a anaphylatoxin (1-77), the natural factor
- Potency % [3]: 100%
- Relative Act. % (guinea pig ileum): 100%
- Relative molar activity (%) [2]: 100%

Substance: W-Ahx-Y-S-H-K-G-M-L-L-G-R (W[Ahx]YSHKGMLLGR) [Peptide C10]
- Potency relative to C3a (57-77), % ([1]; Table 1E): 1.2%

Substance: Y-R-A-S-K-L-G-L-A-R (YRASKLGLAR) [Peptide B3]
- Potency relative to C3a (57-77), % (guinea pig platelet): 55%

Substance: L-G-A-A-R [Peptide Code 12]
- Relative molar activity (%) (guinea pig ileum): <1.4%

Substance: Fmoc-K-K-Y-R-A-S-K-L-G-L-A-R (Fmoc-KKYRASKLGLAR) [Peptide D7]
- Potency relative to C3a (57-77), % ([1]; Table 1F): 279%

Substance: Y-S-H-K-G-M-L-L-G-R (YSHKGMLLGR) [Peptide C7]
- Potency relative to C3a (57-77), % ([1]; Table 1E): 0.5%

Substance: Fmoc-R-A-A-A-L-G-L-A-R (Fmoc-RAAALGLAR) [Peptide D4]
- Potency relative to C3a (57-77), % ([1]; Table 1F): 79%

Substance: Y-A-S-K-L-G-L-A-R (YASKLGLAR) [Peptide C1]
- Potency relative to C3a (57-77), % ([1]; Table 1E): 3.4%

Substance: L-G-F-A-R [Peptide 16]
- Relative Act. % (guinea pig ileum): 1.0%
- Relative molar activity (%) (guinea pig ileum): <1.5%

Substance: W-W-Ahx-Y-R-A-S-K-L-G-L-A-R (WW[Ahx]YRASKLGLAR) [Peptide C6]
- Potency relative to C3a (57-77), % ([1]; Table 1E): 603%

Substance: W-W-R-R-R-Y-A-S-K-L-G-L-A-R (WWRRRYASKLGLAR) [Peptide B16]
- Potency relative to C3a (57-77), % (guinea pig platelet): 296%

Substance: W-Ahx-Y-A-S-K-L-G-L-A-R (W[Ahx]YASKLGLAR) [Peptide C4]
- Potency relative to C3a (57-77), % ([1]; Table 1E): 22%

Substance: W-W-G-G-Y-R-P-S-A-L-G-L-A-R (WWGGYRPSALGLAR) [Peptide D12]
- Potency relative to C3a (57-77), % ([1]; Table 1F): 252%

Substance: L-V-L-A-R [Peptide 10]
- Relative Act. % (guinea pig ileum): 1.2%
- Relative molar activity (%) (guinea pig ileum): 10%

Substance: W-R-R-R-Y-A-S-K-L-G-L-A-R (WRRRYASKLGLAR) [Peptide B14]
- Potency relative to C3a (57-77), % (guinea pig platelet): 66%

Substance: F-G-L-A-R [Peptide 3]
- Relative Act. % (guinea pig ileum): 1.1%
- Relative molar activity (%) (guinea pig ileum): 140%

Substance: W-W-G-G-Y-R-K-S-A-L-G-L-A-R (WWGGYRKSALGLAR) [Peptide D11]
- Potency relative to C3a (57-77), % ([1]; Table 1F): 259%

Substance: Fmoc-R-A-A-R-L-G-L-A-R (Fmoc-RAARLGLAR) [Peptide D5]
- Potency relative to C3a (57-77), % ([1]; Table 1F): 61%

Substance: V-G-L-A-R [Peptide 5]
- Relative Act. % (guinea pig ileum): 0.2%
- Relative molar activity (%) (guinea pig ileum): 90%

Substance: Fmoc-I-R-R--R-Y-A-S-K-L-G-L-A-R (Fmoc-IRRRYASKLGLAR) [Peptide B18]
- Potency relative to C3a (57-77), % (guinea pig platelet): 50%

Substance: L-G-V-A-R [Peptide 17]
- Relative Act. % (guinea pig ileum): <0.005%
- Relative molar activity (%) (guinea pig ileum): <1.1%

Substance: Fmoc-Y-R-A-S-K-L-G-L-A-R (Fmoc-YRASKLGLAR) [Peptide B4]
- Potency relative to C3a (57-77), % (guinea pig platelet): 121%

Substance: Ahx-Y-A-S-K-L-G-L-A-R ([Ahx]YASKLGLAR) [Peptide C2]
- Potency relative to C3a (57-77), % ([1]; Table 1E): 13%

Substance: Fmoc-R-R-Y-R-A-S-K-L-G-L-A-R (Fmoc-RRYRASKLGLAR) [Peptide D6]
- Potency relative to C3a (57-77), % ([1]; Table 1F): 176%

Substance: W-W-G-G-Y-R-A-S-K-L-G-L-A-R (WWGGYRASKLGLAR) [Peptide B6]
- Potency relative to C3a (57-77), % (guinea pig platelet): 259%

Substance: R-R-R-Y-A-S-K-L-G-L-A-R (RRRYASKLGLAR) [Peptide B13]
- Potency relative to C3a (57-77), % (guinea pig platelet): 50%

Substance: W-I-G-G-Y-R-A-S-K-L-G-L-A-R (WIGGYRASKLGLAR) [Peptide B7]
- Potency relative to C3a (57-77), % (guinea pig platelet): 118%

Substance: Fmoc-W-W-R-R-R-Y-A-S-K-L-G-L-A-R (Fmoc-WWRRRYASKLGLAR) [Peptide B19]
- Potency relative to C3a (57-77), % (guinea pig platelet): 53%

Substance: W-W-G-G-Y-R-a-S-A-L-G-L-A-R (WWGGYR[dA]SALGLAR) [Peptide D13]
- Potency relative to C3a (57-77), % ([1]; Table 1F): 118%

Substance: Fmoc-Ahx-Y-S-H-K-G-M-L-L-G-R ({Fmoc-Ahx}-YSHKGMLLGR) [Peptide C9]
- Potency relative to C3a (57-77), % ([1]; Table 1E): 0.8%

Substance: L-L-L-A-R [Peptide 11]
- Relative Act. % (guinea pig ileum): 0.023%
- Relative molar activity (%) (guinea pig ileum): 10%

Substance: L-G-L-A-R (LGLAR) [Peptide Code 5]
- Potency relative to C3a (57-77), % (guinea pig ileum; asterisk: based on guinea pig ileal assay): 0.2* %
- Relative Act. % (guinea pig ileum): 5.9%
- Relative molar activity (%) (guinea pig ileum): 100%

Substance: L-G-L-Q-R [Peptide 20]
- Relative molar activity (%) (guinea pig ileum): 2.8%

Substance: R-R-Y-A-S-K-L-G-L-A-R (RRYASKLGLAR) [Peptide B12]
- Potency relative to C3a (57-77), % (guinea pig platelet): 18%

Substance: Fmoc-G-G-Y-R-A-S-K-L-G-L-A-R (Fmoc-GGYRASKLGLAR) [Peptide D8]
- Potency relative to C3a (57-77), % ([1]; Table 1F): 227%

Substance: H-Cys-Asn-Tyr-Ile-Thr-Glu-Leu-Arg-Arg-Gln-His-Ala-Arg-Ala-Ser-His-Leu-Gly-Leu-Ala-Arg-OH (H-CNYITELRRQHARASHLGLAR-OH) [C3a-(57-77)]
- Relative molar activity (%) [2]: >20* %

Substance: H-Arg-Gln-His-Ala-Arg-Ala-Ser-His-Leu-Gly-Leu-Ala-Arg-OH (H-RQHARASHLGLAR-OH) [C3a-(65-77)]
- Relative molar activity (%) [2]: 2.5%

Substance: L-E-L-A-R [Peptide 13]
- Relative Act. % (guinea pig ileum): 2.0%
- Relative molar activity (%) (guinea pig ileum): <2.4%

Substance: L-G-L-G-R [Peptide 22]
- Relative molar activity (%) (guinea pig ileum): <5.8%

Substance: L-Q-L-A-R [Peptide 12]
- Relative Act. % (guinea pig ileum): <0.003%
- Relative molar activity (%) (guinea pig ileum): <5.5%

Substance: Fmoc-A-A-R-A-L-G-L-A-R (Fmoc-AARALGLAR) [Peptide D2]
- Potency relative to C3a (57-77), % ([1]; Table 1F): 41%

Substance: Fmoc-A-R-A-A-L-G-L-A-R (Fmoc-ARAALGLAR) [Peptide D3]
- Potency relative to C3a (57-77), % ([1]; Table 1F): 37%

Substance: L-G-L-P-R [Peptide 19]
- Relative molar activity (%) (guinea pig ileum): 3.5%

Substance: R-Y-A-S-K-L-G-L-A-R (RYASKLGLAR) [Peptide B2]
- Potency relative to C3a (57-77), % (guinea pig platelet): 7.0%

Substance: L-G-I-A-R [Peptide 14]
- Relative Act. % (guinea pig ileum): 0.8%
- Relative molar activity (%) (guinea pig ileum): 10%

Substance: W-W-G-G-Y-R-A-S-A-L-G-L-A-R (WWGGYRASALGLAR) [Peptide D10]
- Potency relative to C3a (57-77), % ([1]; Table 1F): 181%

Substance: H-Ala-Ser-His-Leu-Gly-Leu-Ala-Arg-OH (H-ASHLGLAR-OH) [C3a-(70-77)]
- Relative molar activity (%) [2]: 2.0%
